In patent publication US20240041042A1, “1-(PYRIDYL)-5-AZINYLPYRAZOLE DERIVATIVES, AND THEIR USE FOR CONTROL OF UNDESIRED PLANT GROWTH” (Bayer Aktiengesellschaft, priority 2020, published 2024):
Like-named read-outs stand apart in the source and are kept apart here.

Legend:
Format in all cases: in vivo
[1] = tested on: Abutilon theophrasti (ABUTH); assay: Pre-emergence herbicidal action against ABUTH; settings: 100% = plants have died
Outline: (§1)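 Greenhouse pot trial: seeds sown, soil-covered, sprayed before emergence with compound in water (0.5% additive; 600 l/ha; ≤320 g/ha). Scoring visual, ~3 weeks, 0–100% scale vs untreated.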

[2] = tested on: Alopecurus myosuroides (ALOMY); assay: Pre-emergence herbicidal action against ALOMY; settings: scored visually after about 3 weeks, 100% = plants have died
Outline: as §1

[3] = tested on: Amaranthus retroflexus (AMARE); assay: Pre-emergence herbicidal action against AMARE; settings: visual scoring after about 3 weeks vs untreated controls
Outline: as §1

Avena fatua (AVEFA) [4] = assay: Pre-emergence herbicidal action against AVEFA; settings: visual scoring after about 3 weeks vs untreated controls
Outline: as §1

[5] = tested on: Echinochloa crus-galli (ECHCG); assay: Pre-emergence herbicidal action against ECHCG
Outline: as §1

Lolium rigidum (LOLRI) [6] = assay: Pre-emergence herbicidal action against LOLRI
Outline: as §1

[7] = tested on: Matricaria inodora (MATIN); assay: Pre-emergence herbicidal action against MATIN
Outline: as §1

[8] = tested on: Pharbitis purpurea (PHBPU); assay: Pre-emergence herbicidal action against PHBPU
Outline: as §1

[9] = tested on: Polygonum convolvulus (POLCO); assay: Pre-emergence herbicidal action against POLCO; settings: dosage 320 g/ha
Outline: as §1

Setaria viridis (SETVI) [10] = assay: Pre-emergence herbicidal action against SETVI
Outline: as §1

[11] = tested on: Verconica persica (VERPE); assay: Pre-emergence herbicidal action against VERPE; settings: dosage 320 g/ha
Outline: as §1

Viola tricolor (VIOTR) [12] = assay: Pre-emergence herbicidal action against VIOTR
Outline: as §1

[13] = tested on: Abutilon theophrasti (ABUTH); assay: Post-emergence herbicidal action against ABUTH; settings: visual rating about 3 weeks after treatment vs untreated controls (100% = plants have died, 0% = like control plants)
Outline: (§2)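 Greenhouse plants sprayed at the one-leaf stage, 2–3 weeks after sowing, with WP or EC formulations plus 0.5% additive at 600 l/ha water. Activity rated visually after about 3 weeks versus untreated controls (100% = dead, 0% = like control), at 320 g/ha or lower.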

[14] = tested on: Alopecurus myosuroides (ALOMY); assay: Post-emergence herbicidal action against ALOMY; settings: visual rating about 3 weeks after treatment vs untreated controls (100% = plants have died, 0% = like control plants)
Outline: as §2

[15] = tested on: Amaranthus retroflexus (AMARE); assay: Post-emergence herbicidal action against AMARE
Outline: as §2

Avena fatua (AVEFA) [16] = assay: Post-emergence herbicidal action against AVEFA; settings: visual rating about 3 weeks after treatment
Outline: as §2

[17] = tested on: Echinochloa crus-galli (ECHCG); assay: Post-emergence herbicidal action against ECHCG
Outline: as §2

Lolium rigidum (LOLRI) [18] = assay: Post-emergence herbicidal action against LOLRI
Outline: as §2

[19] = tested on: Polygonum convolvulus (POLCO); assay: Post-emergence herbicidal action against POLCO
Outline: as §2

Setaria viridis (SETVI) [20] = assay: Post-emergence herbicidal action against SETVI
Outline: as §2

[21] = tested on: Verconica persica (VERPE); assay: Post-emergence herbicidal action against VERPE
Outline: as §2

Viola tricolor (VIOTR) [22] = assay: Post-emergence herbicidal action against VIOTR
Outline: as §2

Oryza sativa (ORYSA) = settings: crop plant compatibility
Outline: (§3)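 Percent effect on the crop was judged by eye against untreated controls, where 0% means like control and 100% means dead plants. Plants had been sprayed post-emergence at the one-leaf stage and then kept under optimum greenhouse conditions for about 3 weeks.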

[23] = tested on: Triticum aestivum (TRZAS); settings: crop plant compatibility, effect vs untreated controls
Outline: as §3

[24] = tested on: Matricaria inodora (MATIN); assay: Post-emergence herbicidal action against MATIN; settings: dosage 80 g/ha
Outline: as §2

[25] = tested on: Pharbitis purpurea (PHBPU); assay: Post-emergence herbicidal action against PHBPU; settings: dosage 80 g/ha
Outline: as §2

Zea mays (ZEAMX) = settings: 20 g/ha, ZEAMX, effect in comparison to untreated controls
Outline: as §3

[26] = Dosage column 320 g/ha (title prints 3200 g/ha), scored visually after about 3 weeks
[27] = 80 g/ha, effect in comparison to untreated controls

SMILES	Pre-emergence action against ABUTH [1, 26] [%]	Pre-emergence action against ALOMY ([2]; 80 g/ha) [%]	Pre-emergence action against ALOMY ([2]; 320 g/ha) [%]	Pre-emergence action against AMARE in % ([3]; 80 g/ha) [%]	Pre-emergence action against AMARE in % ([3]; 320 g/ha) [%]	Pre-emergence action against AVEFA in % (Avena fatua (AVEFA) [4]; 320 g/ha) [%]	Pre-emergence action against ECHCG in % ([5]; dosage 80 g/ha) [%]	Pre-emergence action against ECHCG in % ([5]; dosage 320 g/ha) [%]	Pre-emergence action against LOLRI in % (Lolium rigidum (LOLRI) [6]; dosage 320 g/ha) [%]	Pre-emergence action against MATIN in % ([7]; dosage 320 g/ha) [%]	Pre-emergence action against PHBPU in % ([8]; dosage 320 g/ha) [%]	Pre-emergence action against POLCO in % [9] [%]	Pre-emergence action against SETVI in % (Setaria viridis (SETVI) [10]; dosage 80 g/ha) [%]	Pre-emergence action against SETVI in % (Setaria viridis (SETVI) [10]; dosage 320 g/ha) [%]	Pre-emergence action against VERPE in % [11] [%]	Pre-emergence action against VIOTR in % (Viola tricolor (VIOTR) [12]; 320 g/ha, Viola tricolor) [%]	Pre-emergence action against VIOTR in % (Viola tricolor (VIOTR) [12]; dosage 80 g/ha) [%]	Post-emergence action against ABUTH in % ([13]; 80 g/ha) [%]	Post-emergence action against ALOMY in % ([14]; 80 g/ha) [%]	Post-emergence action against ECHCG in % ([17]; dosage 80 g/ha) [%]	further results
CCOC(=O)COc1nn(-c2ccnc(Cl)c2)c(-c2ccc(F)nc2)c1Br [III-24]	100	100	100	100	100	100	90	100	100	100	100	100	100	100	100	100	100	90	100	80	Pre-emergence action against ABUTH ([1]; 80 g/ha, scored visually after about 3 weeks vs untreated controls, 0% = like control plants): 90%; Pre-emergence action against AVEFA in % (Avena fatua (AVEFA) [4]; 80 g/ha): 100%; Pre-emergence action against LOLRI in % (Lolium rigidum (LOLRI) [6]; dosage 80 g/ha): 100%; Post-emergence action against ABUTH in % ([13]; 320 g/ha): 90%; Post-emergence action against ALOMY in % ([14]; 320 g/ha): 100%; Post-emergence action against AMARE in % ([15]; 320 g/ha, visual rating about 3 weeks after treatment): 100%; Post-emergence action against AVEFA in % (Avena fatua (AVEFA) [16]; 320 g/ha): 80%; Post-emergence action against ECHCG in % ([17]; dosage 320 g/ha): 100%; Post-emergence action against LOLRI in % (Lolium rigidum (LOLRI) [18]; dosage 80 g/ha): 100%; Post-emergence action against LOLRI in % (Lolium rigidum (LOLRI) [18]; dosage 320 g/ha): 100%; Post-emergence action against POLCO in % ([19]; dosage 320 g/ha): 90%; Post-emergence action against SETVI in % (Setaria viridis (SETVI) [20]; dosage 80 g/ha): 100%; Post-emergence action against SETVI in % (Setaria viridis (SETVI) [20]; dosage 320 g/ha): 100%; Post-emergence action against VERPE in % ([21]; 320 g/ha, VERPE): 80%; Post-emergence action against VIOTR in % (Viola tricolor (VIOTR) [22]; 80 g/ha): 80%; Post-emergence action against VIOTR in % (Viola tricolor (VIOTR) [22]; 320 g/ha): 90%; Post-emergence action against ORYSA in % (Oryza sativa (ORYSA); [27]): 0%; Post-emergence action against TRZAS in % ([23]; 80 g/ha): 0%; Post-emergence action against TRZAS in % ([23]; 320 g/ha): 0%
COC(=O)[C@H](C)COC(=O)COc1nn(-c2ccccn2)c(-c2cncc(F)c2)c1Cl [Example I-74]	90	80	100	90	100	80	80	100	100	90	90	100	90	100	100	100	90	80	100	90	Pre-emergence action against MATIN in % ([7]; dosage 80 g/ha): 90%; Pre-emergence action against PHBPU in % ([8]; dosage 80 g/ha): 90%; Post-emergence action against AMARE in % ([15]; 80 g/ha, visual rating about 3 weeks after treatment vs untreated controls (100% = plants have died, 0% = like control plants)): 80%; Post-emergence action against AVEFA in % (Avena fatua (AVEFA) [16]; 80 g/ha): 90%; Post-emergence action against LOLRI in % (Lolium rigidum (LOLRI) [18]; dosage 80 g/ha): 90%; Post-emergence action against MATIN in % [24]: 90%; Post-emergence action against PHBPU in % [25]: 90%; Post-emergence action against POLCO in % ([19]; dosage 80 g/ha): 90%; Post-emergence action against SETVI in % (Setaria viridis (SETVI) [20]; dosage 80 g/ha): 80%; Post-emergence action against VERPE in % ([21]; dosage 80 g/ha): 80%; Post-emergence action against ORYSA in % (Oryza sativa (ORYSA); 20 g/ha, effect vs untreated controls): 0%; Post-emergence action against ORYSA in % (Oryza sativa (ORYSA); [27]): 10%; Post-emergence action against TRZAS in % ([23]; 20 g/ha): 0%; Post-emergence action against ZEAMX in % (crop plant compatibility) (Zea mays (ZEAMX)): 10%
